For test [1], the target named is T1, Mucosa-associated lymphoid tissue lymphoma translocation protein 1 (Homo sapiens, UniProt Q9UDY8).
T1 sequence (Q9UDY8 whole entry): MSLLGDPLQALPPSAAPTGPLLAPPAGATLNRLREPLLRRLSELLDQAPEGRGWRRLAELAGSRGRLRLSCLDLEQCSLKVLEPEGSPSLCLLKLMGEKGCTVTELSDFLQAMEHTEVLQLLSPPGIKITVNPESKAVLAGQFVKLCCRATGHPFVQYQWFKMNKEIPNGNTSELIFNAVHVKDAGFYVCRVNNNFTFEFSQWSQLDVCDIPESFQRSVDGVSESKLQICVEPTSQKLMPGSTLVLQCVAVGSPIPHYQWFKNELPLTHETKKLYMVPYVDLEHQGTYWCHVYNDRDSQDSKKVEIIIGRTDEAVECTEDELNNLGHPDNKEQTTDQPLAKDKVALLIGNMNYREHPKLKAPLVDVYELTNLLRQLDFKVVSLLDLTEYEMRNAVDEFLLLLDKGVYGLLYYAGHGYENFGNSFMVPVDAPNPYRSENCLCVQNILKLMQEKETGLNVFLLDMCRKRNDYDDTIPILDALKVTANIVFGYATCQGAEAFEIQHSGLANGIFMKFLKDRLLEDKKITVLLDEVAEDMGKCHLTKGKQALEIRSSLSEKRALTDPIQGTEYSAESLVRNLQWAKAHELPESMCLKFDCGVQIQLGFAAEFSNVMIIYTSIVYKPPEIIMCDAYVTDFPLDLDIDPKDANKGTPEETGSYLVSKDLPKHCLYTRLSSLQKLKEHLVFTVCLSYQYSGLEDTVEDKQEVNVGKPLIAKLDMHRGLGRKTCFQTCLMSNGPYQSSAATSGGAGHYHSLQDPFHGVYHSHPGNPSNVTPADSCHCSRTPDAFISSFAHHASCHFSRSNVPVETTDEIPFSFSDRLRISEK
The test can be described thus: MALT1 Protease Assay 1. The procedure:
The final assay buffer includes 2 nM of MALT1 full-length protein, 50 μM Ac-LRSR-AMC substrate, 50 mM Tris pH 7.5, 600 mM Sodium Citrate, 1 mM DTT, 1 mM EDTA, and 0.05% BSA in 384-well plate format using black microtiter square well plates (Optiplate 384-F, Perkin Elmer). Test compounds were dissolved in 100% DMSO at stock of 10 mM, with final DMSO concentration 0.1%. Test compounds were pre-incubated with MALT1 protein for 2 h at room temperature. Substrate was added after the pre-incubation and fluorescence signal was measured using Envision at excitation 355 nm and emission 460 nm after 8 hr incubation at RT. Increase in the assay signal was linear over this period and proportional with increase in the enzyme content.

Test [2] concerns the target T1, Mucosa-associated lymphoid tissue lymphoma translocation protein 1. Put plainly: MALT1 Protease Assay 2. The procedure: Test compounds were dissolved in 100% DMSO at stock of 10 mM, with final DMSO concentration 0.1%. Test compounds were pre-incubated with MALT1 protein for 2 h at room temperature.

As a reminder, the IC50 is the concentration at which inhibition is half-maximal. Low readings indicate inhibition by little substance, high ones a need for much substance.

With `C[C@@]1(C(F)(F)F)CN(C(=O)N[C@@H]2CCCC(F)(F)C2)c2cnc3cc(Cl)nn3c21` [US20240018157, Example 54], the values for the concentration for half-maximal inhibition (IC50) in test [1] and in test [2] were over 1000 nM and 100 to 1000 nM, respectively.
`C[C@@]1(C(F)(F)F)CN(C(=O)Nc2cnc(-n3nccn3)c(Cl)c2)c2cnc3cc(Cl)nn3c21` [US20240018157, Example 16] registered a 50% inhibitory concentration (IC50) in test [1] of under 10 nM.
On to `C[C@@]1(C(F)(F)F)CN(C(=O)Nc2cnc(-n3ccnn3)c(C(F)(F)F)c2)c2cnc3cc(Cl)nn3c21` [US20240018157, Example 44], for which, in test [1], the IC50 was under 10 nM.
`C[C@@]1(C(F)(F)F)CN(C(=O)Nc2cnc([C@@H]3CCCO3)c(Cl)c2)c2cnc3cc(Cl)nn3c21` [US20240018157, Example 33]: the IC50 in test [1] lay within 10 to 100 nM.
`C[C@@]1(C(F)(F)F)CN(C(=O)Nc2cnc([C@H]3CCCCO3)c(Cl)c2)c2cnc3cc(Cl)nn3c21` [US20240018157, Example 47] displayed an IC50 in test [1] of 10 to 100 nM.
